Laboratory results published in patent US20240350469A1, “TREATMENT OF LOWER RESPIRATORY TRACT INFECTION WITH TRADIPITANT” (Vanda Pharmaceuticals Inc., priority 2021, published 2024).

Test system: severe or critical COVID-19 infection
Test: Randomized, double-blind, placebo-controlled study of tradipitant in hospitalized patients with COVID-19 pneumonia (interim analysis, ITT)
Format: in vivo
Settings: for Ordinal Score at Day 7 = 7 (Not hospitalized), no. of patients / Ordinal Score at Day 28 = 1 (Death), % of patients / Ordinal Score at Day 28 = 1 (Death), no. of patients / Ordinal Score at Day 28 = 2 (Hospitalized, on invasive mechanical ventilation or ECMO), % of patients / Ordinal Score at Day 28 = 2 (Hospitalized, on invasive mechanical ventilation or ECMO), no. of patients / Ordinal Score at Day 28 = 3 (Hospitalized, on non-invasive ventilation or high flow oxygen devices), % of patients / Ordinal Score at Day 28 = 3 (Hospitalized, on non-invasive ventilation or high flow oxygen devices), no. of patients / Ordinal Score at Day 28 = 4 (Hospitalized, requiring supplemental oxygen), % of patients / Ordinal Score at Day 28 = 4 (Hospitalized, requiring supplemental oxygen), no. of patients / Ordinal Score at Day 28 = 7 (Not hospitalized), % of patients / Ordinal Score at Day 28 = 7 (Not hospitalized), no. of patients / No. of deaths by day 7 / No. of deaths by day 28 / Ordinal Score at Day 7 = 1 (Death), % of patients / Ordinal Score at Day 7 = 1 (Death), no. of patients / Ordinal Score at Day 7 = 2 (Hospitalized, on invasive mechanical ventilation or ECMO), % of patients / Ordinal Score at Day 7 = 2 (Hospitalized, on invasive mechanical ventilation or ECMO), no. of patients / Ordinal Score at Day 7 = 3 (Hospitalized, on non-invasive ventilation or high flow oxygen devices), % of patients / Ordinal Score at Day 7 = 3 (Hospitalized, on non-invasive ventilation or high flow oxygen devices), no. of patients / Ordinal Score at Day 7 = 4 (Hospitalized, requiring supplemental oxygen), % of patients / Ordinal Score at Day 7 = 4 (Hospitalized, requiring supplemental oxygen), no. of patients / Ordinal Score at Day 7 = 5 (Hospitalized, not requiring supplemental oxygen), % of patients / Ordinal Score at Day 7 = 5 (Hospitalized, not requiring supplemental oxygen), no. of patients / Ordinal Score at Day 7 = 7 (Not hospitalized), % of patients: ITT
[1] = ordinal score at baseline 3, tradipitant N = 13
[2] = ordinal score at baseline 4, tradipitant N = 9

With O=C(c1ccccc1Cl)c1cccnc1-c1nnn(Cc2cc(C(F)(F)F)cc(C(F)(F)F)c2)c1-c1ccncc1 [Tradipitant] as the compound, how does the “Ordinal Score at Day 7 = 7 (Not hospitalized), no. of patients” value [1] read?
The value was 1.

What about the “Ordinal Score at Day 28 = 1 (Death), % of patients” value [1] of the same compound?
The value was “(7.7) %”.

What about the “Ordinal Score at Day 28 = 1 (Death), no. of patients” value [1] of the same compound?
Its value is 1.

And the “Ordinal Score at Day 28 = 2 (Hospitalized, on invasive mechanical ventilation or ECMO), % of patients” value [1]?
Its value is “(61.5) %”.

What about the “Ordinal Score at Day 28 = 2 (Hospitalized, on invasive mechanical ventilation or ECMO), no. of patients” value [1] of the same compound?
The value was 8.

And the “Ordinal Score at Day 28 = 3 (Hospitalized, on non-invasive ventilation or high flow oxygen devices), % of patients” value [1]?
The value was “(0.0) %”.

What about the “Ordinal Score at Day 28 = 3 (Hospitalized, on non-invasive ventilation or high flow oxygen devices), no. of patients” value [1] of the same compound?
Its value is 0.

And the “Ordinal Score at Day 28 = 4 (Hospitalized, requiring supplemental oxygen), % of patients” value [1]?
The value was “(0.0) %”.

What about the “Ordinal Score at Day 28 = 4 (Hospitalized, requiring supplemental oxygen), no. of patients” value [1] of the same compound?
The value was 0.

What about the “Ordinal Score at Day 28 = 7 (Not hospitalized), % of patients” value [1] of the same compound?
The value was “(30.8) %”.

What about the “Ordinal Score at Day 28 = 7 (Not hospitalized), no. of patients” value [1] of the same compound?
Its value is 4.

And the “No. of deaths by day 7” value [2]?
The value was 1.

What about the “No. of deaths by day 28” value [2] of the same compound?
The value was 1.

What about the “Ordinal Score at Day 7 = 1 (Death), % of patients” value [2] of the same compound?
The value was “(11.1) %”.

What about the “Ordinal Score at Day 7 = 1 (Death), no. of patients” value [2] of the same compound?
The value was 1.

What about the “Ordinal Score at Day 7 = 2 (Hospitalized, on invasive mechanical ventilation or ECMO), % of patients” value [2] of the same compound?
The value was “(0.0) %”.

And the “Ordinal Score at Day 7 = 2 (Hospitalized, on invasive mechanical ventilation or ECMO), no. of patients” value [2]?
The value was 0.

And the “Ordinal Score at Day 7 = 3 (Hospitalized, on non-invasive ventilation or high flow oxygen devices), % of patients” value [2]?
Its value is “(11.1) %”.

What about the “Ordinal Score at Day 7 = 3 (Hospitalized, on non-invasive ventilation or high flow oxygen devices), no. of patients” value [2] of the same compound?
The value was 1.

And the “Ordinal Score at Day 7 = 4 (Hospitalized, requiring supplemental oxygen), % of patients” value [2]?
Its value is “(11.1) %”.

And the “Ordinal Score at Day 7 = 4 (Hospitalized, requiring supplemental oxygen), no. of patients” value [2]?
Its value is 1.

What about the “Ordinal Score at Day 7 = 5 (Hospitalized, not requiring supplemental oxygen), % of patients” value [2] of the same compound?
Its value is “(0.0) %”.

And the “Ordinal Score at Day 7 = 5 (Hospitalized, not requiring supplemental oxygen), no. of patients” value [2]?
The value was 0.

What about the “Ordinal Score at Day 7 = 7 (Not hospitalized), % of patients” value [2] of the same compound?
The value was “(66.7) %”.

What about the “Ordinal Score at Day 7 = 7 (Not hospitalized), no. of patients” value [2] of the same compound?
Its value is 6.

What about the “Ordinal Score at Day 28 = 1 (Death), % of patients” value [2] of the same compound?
Its value is “(11.1) %”.

What about the “Ordinal Score at Day 28 = 1 (Death), no. of patients” value [2] of the same compound?
The value was 1.

And the “Ordinal Score at Day 28 = 2 (Hospitalized, on invasive mechanical ventilation or ECMO), % of patients” value [2]?
Its value is “(0.0) %”.

And the “Ordinal Score at Day 28 = 2 (Hospitalized, on invasive mechanical ventilation or ECMO), no. of patients” value [2]?
The value was 0.

What about the “Ordinal Score at Day 28 = 3 (Hospitalized, on non-invasive ventilation or high flow oxygen devices), % of patients” value [2] of the same compound?
Its value is “(11.1) %”.

And the “Ordinal Score at Day 28 = 3 (Hospitalized, on non-invasive ventilation or high flow oxygen devices), no. of patients” value [2]?
The value was 1.

And the “Ordinal Score at Day 28 = 4 (Hospitalized, requiring supplemental oxygen), % of patients” value [2]?
Its value is “(0.0) %”.

And the “Ordinal Score at Day 28 = 4 (Hospitalized, requiring supplemental oxygen), no. of patients” value [2]?
Its value is 0.

What about the “Ordinal Score at Day 28 = 7 (Not hospitalized), % of patients” value [2] of the same compound?
Its value is “(77.8) %”.

What about the “Ordinal Score at Day 28 = 7 (Not hospitalized), no. of patients” value [2] of the same compound?
Its value is 7.

What about the “No. of deaths by day 7” value (overall, tradipitant N = 28) of the same compound?
Its value is 2.

What about the “No. of deaths by day 28” value (overall, tradipitant N = 28) of the same compound?
Its value is 4.

What about the “Ordinal Score at Day 7 = 1 (Death), % of patients” value (overall, tradipitant N = 28) of the same compound?
The value was “(7.1) %”.

And the “Ordinal Score at Day 7 = 1 (Death), no. of patients” value (overall, tradipitant N = 28)?
Its value is 2.

What about the “Ordinal Score at Day 7 = 2 (Hospitalized, on invasive mechanical ventilation or ECMO), % of patients” value (overall, tradipitant N = 28) of the same compound?
Its value is “(32.1) %”.

And the “Ordinal Score at Day 7 = 2 (Hospitalized, on invasive mechanical ventilation or ECMO), no. of patients” value (overall, tradipitant N = 28)?
Its value is 9.

And the “Ordinal Score at Day 7 = 3 (Hospitalized, on non-invasive ventilation or high flow oxygen devices), % of patients” value (overall, tradipitant N = 28)?
The value was “(14.3) %”.

What about the “Ordinal Score at Day 7 = 3 (Hospitalized, on non-invasive ventilation or high flow oxygen devices), no. of patients” value (overall, tradipitant N = 28) of the same compound?
Its value is 4.

And the “Ordinal Score at Day 7 = 4 (Hospitalized, requiring supplemental oxygen), % of patients” value (overall, tradipitant N = 28)?
Its value is “(7.1) %”.

What about the “Ordinal Score at Day 7 = 4 (Hospitalized, requiring supplemental oxygen), no. of patients” value (overall, tradipitant N = 28) of the same compound?
The value was 2.

And the “Ordinal Score at Day 7 = 5 (Hospitalized, not requiring supplemental oxygen), % of patients” value (overall, tradipitant N = 28)?
The value was “(7.1) %”.

What about the “Ordinal Score at Day 7 = 5 (Hospitalized, not requiring supplemental oxygen), no. of patients” value (overall, tradipitant N = 28) of the same compound?
The value was 2.

And the “Ordinal Score at Day 7 = 7 (Not hospitalized), % of patients” value (overall, tradipitant N = 28)?
The value was “(32.1) %”.

And the “Ordinal Score at Day 7 = 7 (Not hospitalized), no. of patients” value (overall, tradipitant N = 28)?
Its value is 9.

What about the “Ordinal Score at Day 28 = 1 (Death), % of patients” value (overall, tradipitant N = 28) of the same compound?
Its value is “(14.3) %”.

What about the “Ordinal Score at Day 28 = 1 (Death), no. of patients” value (overall, tradipitant N = 28) of the same compound?
Its value is 4.

And the “Ordinal Score at Day 28 = 2 (Hospitalized, on invasive mechanical ventilation or ECMO), % of patients” value (overall, tradipitant N = 28)?
The value was “(28.6) %”.

What about the “Ordinal Score at Day 28 = 2 (Hospitalized, on invasive mechanical ventilation or ECMO), no. of patients” value (overall, tradipitant N = 28) of the same compound?
The value was 8.

What about the “Ordinal Score at Day 28 = 3 (Hospitalized, on non-invasive ventilation or high flow oxygen devices), % of patients” value (overall, tradipitant N = 28) of the same compound?
The value was “(3.6) %”.

And the “Ordinal Score at Day 28 = 3 (Hospitalized, on non-invasive ventilation or high flow oxygen devices), no. of patients” value (overall, tradipitant N = 28)?
Its value is 1.

What about the “Ordinal Score at Day 28 = 4 (Hospitalized, requiring supplemental oxygen), % of patients” value (overall, tradipitant N = 28) of the same compound?
The value was “(0.0) %”.

What about the “Ordinal Score at Day 28 = 4 (Hospitalized, requiring supplemental oxygen), no. of patients” value (overall, tradipitant N = 28) of the same compound?
The value was 0.

And the “Ordinal Score at Day 28 = 7 (Not hospitalized), % of patients” value (overall, tradipitant N = 28)?
Its value is “(53.6) %”.

What about the “Ordinal Score at Day 28 = 7 (Not hospitalized), no. of patients” value (overall, tradipitant N = 28) of the same compound?
Its value is 15.

And the Mortality rate (tradipitant arm, interim analysis, placebo arm 16.6%, not statistically significant)?
The Mortality rate was 14.2%.

What about the “Patients showing clinical improvement (at least a 2 point improvement in the 7 point ordinal scale)” value (tradipitant arm, interim analysis, placebo arm 50%, not statistically significant) of the same compound?
Its value is 57%.

What about the “Time to improvement analysis” value (tradipitant vs placebo, FIG. 1, statistically significant at day 7) of the same compound?
Its value is “recover earlier than those receiving placebo”.
